Assay results reported in article PMC8000592, “Discovery and Optimization of Selective Inhibitors of Meprin α (Part I)” (Pharmaceuticals, 2021).
Like-named read-outs stand apart in the source and are kept apart here. Peptide text beside a SMILES is read from it. * marks the point of attachment. Dnp = O=[N+]([O-])c1ccc(*)c([N+](=O)[O-])c1; Mca = COc1ccc2c(CC(=O)*)cc(=O)oc2c1

How the values were obtained:
meprin β [1] = molecular target: T1, meprin β (Homo sapiens, UniProt Q16820); assay: Meprin β assay, fluorogenic substrate (Mca)-EDEDED-(K-ε-Dnp), 384 and 1536 well plate formats; type: biochemical; settings: read-out: IC50
T1 sequence (Q16820 62-594 limits assumed): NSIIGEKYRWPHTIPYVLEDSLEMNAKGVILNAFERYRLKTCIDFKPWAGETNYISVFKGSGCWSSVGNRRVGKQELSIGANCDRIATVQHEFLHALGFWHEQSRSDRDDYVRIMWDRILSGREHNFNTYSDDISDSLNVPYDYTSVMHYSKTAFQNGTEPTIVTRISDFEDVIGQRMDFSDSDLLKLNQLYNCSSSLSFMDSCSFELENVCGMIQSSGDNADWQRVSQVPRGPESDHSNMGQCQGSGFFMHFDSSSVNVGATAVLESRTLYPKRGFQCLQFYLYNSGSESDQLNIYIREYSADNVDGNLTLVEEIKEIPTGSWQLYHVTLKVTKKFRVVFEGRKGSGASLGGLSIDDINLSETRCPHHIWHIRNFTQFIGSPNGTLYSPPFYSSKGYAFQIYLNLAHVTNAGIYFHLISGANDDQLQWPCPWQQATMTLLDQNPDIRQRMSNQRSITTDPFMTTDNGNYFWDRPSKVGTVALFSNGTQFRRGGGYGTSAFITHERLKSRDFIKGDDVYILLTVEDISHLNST
Description: (§1) The meprin α and meprin β assays, which utilize the substrates (Mca)-YVADAPK-(K-ε-Dnp) and (Mca)-EDEDED-(K-ε-Dnp), respectively, have been described previously. To enable an ultra-high-throughput screening (uHTS) campaign, we proceeded to miniaturize both assays to 1536 well plate format (wpf). First, we recapitulated the assays in 1536 well plate using reagents at the same concentrations as in 384 well plate format assays by scaling the volume down by the factor of 2.5.
(§2) Both assays followed the same general protocol. A 5 µL measure of 2 × enzyme solution (2.6 and 0.1 nM for meprin α and meprin β, respectively) in assay buffer (50 mM Hepes, 0.01% Brij-35, pH 7.5) was added to solid bottom black 384 low volume plates (Nunc, cat# 264705). Next, 75 nL of test compounds or pharmacological control (actinonin or NFF449) were added to corresponding wells using a 384-pin tool device (V&P Scientific, San Diego, CA, USA). After 30 min incubation at RT, the reactions were started by addition of 5 µL of 2 × solutions of substrates (20 µM, mepin α substrate Mca-YVADAPK-K(Dnp) or meprin β substrate Mca-EDEDED-K(Dnp)). Reactions were incubated at RT for 1 h, after which the fluorescence was measured using the Synergy H4 multimode microplate reader (Biotek Instruments) (λexcitation = 324 nm, λemission = 390 nm).
(§3) Both assays followed the same general protocol. A 2 µL portion of 2 × enzyme solution (1.3 and 0.0125 nM for meprin α and meprin β, respectively) in assay buffer (50 mM Hepes, 0.01% Brij-35, pH 7.5) was added to solid bottom black 1536 low volume plates (Corning cat# 7261). Next, 30 nL of test compounds or pharmacological control (actinonin or NFF449) was added to corresponding wells using a 1536 pin tool device (V&P Scientific, San Diego). After 30 min incubation at RT, the reactions were started by addition of 2 µL of 2x solutions of substrates (20 µM, meprin α substrate Mca-YVADAPK-K(Dnp) or meprin β substrate Mca-EDEDED-K(Dnp)). Reactions were incubated at RT for 1 h, after which the fluorescence was measured using the Viewlux multimode microplate reader (Perkin Elmer) (λexcitation = 324 nm, λemission = 390 nm).
(§4) The miniaturized 1536-well plate format meprin α and meprin β assays were used to screen a collection of approximately 650,000 compounds (The Scripps Research library, La Jolla, CA, USA) on the automated Kalypsys/GNF platform at The Scripps Research Molecular Screening Center (SRMSC, Jupiter, FL, USA: http://hts.florida.scripps.edu/). Both uHTS campaigns were run separately but in a similar manner. Briefly, the first step was the primary screen of all test compounds as singlicates against the meprin α and meprin β target at a final concentration of 7.0 μM. Next, compounds selected as primary hits were cherry-picked and retested in triplicate against the primary screen target and its antitarget (meprin α for the meprin β screening effort, and vice versa) at a same final concentration of 7.0 μM. The additional counter screen assays against related metzincins (MMP-8, MMP-14, and ADAM10) were performed in triplicate at a final concentration of 7.0 μM. The final step was the titration of selected hits as 10-point, 1:3 serial dilutions in both the target and antitarget assay, starting at a final nominal concentration of 17 μM. […] Wells treated with DMSO only were used as negative controls and 0% inhibition reference. […] All data generated during this effort were uploaded to the SRMSC’s institutional screening database (Assay Explorer, Symyx). Sample to background (S/B) ratios, as well as Z and Z’ values, were calculated on a per plate basis as described 14. Curve fitting and resulting IC50 determinations were performed as previously reported.

meprin α [2] = molecular target: T2, meprin α (Homo sapiens, UniProt Q16819); assay: Meprin α assay, fluorogenic substrate (Mca)-YVADAPK-(K-ε-Dnp), 384 and 1536 well plate formats; type: biochemical
T2 sequence (Q16819 66-593 limits assumed): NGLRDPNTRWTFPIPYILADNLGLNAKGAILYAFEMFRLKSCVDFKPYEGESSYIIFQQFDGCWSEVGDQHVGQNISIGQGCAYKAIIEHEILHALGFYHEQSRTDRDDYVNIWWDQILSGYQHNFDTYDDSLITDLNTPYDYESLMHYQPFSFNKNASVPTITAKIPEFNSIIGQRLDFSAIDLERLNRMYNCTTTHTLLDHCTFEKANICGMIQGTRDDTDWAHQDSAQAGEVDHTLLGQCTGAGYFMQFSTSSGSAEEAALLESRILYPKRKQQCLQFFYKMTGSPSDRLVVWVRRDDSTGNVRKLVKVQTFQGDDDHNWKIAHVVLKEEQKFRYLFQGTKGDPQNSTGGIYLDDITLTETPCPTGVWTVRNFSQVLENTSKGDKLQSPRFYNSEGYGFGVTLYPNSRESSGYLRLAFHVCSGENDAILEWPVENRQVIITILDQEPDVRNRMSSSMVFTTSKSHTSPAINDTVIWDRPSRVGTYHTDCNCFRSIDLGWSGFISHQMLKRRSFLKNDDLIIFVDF
Description: as §1, §2, §3, §4

meprin β [3] = settings: cited from earlier work
meprin α [4] = settings: cited from earlier work
MMP and ADAM = settings: cited from earlier work; for effect on MMP and ADAM activity: 200 µM inhibitor
meprin α [5] = molecular target: T2, meprin α; assay: Kinetic parameters of meprin α mediated proteolysis of its substrate; type: biochemical; settings: proteolysis by meprin α, 25 °C
Procedure: Next, we performed substrate optimization to achieve balanced assay conditions defined as [S]/KM = 1 [19]. In order to do that, we first determined kinetic parameters of proteolysis of meprin α and meprin β substrates by the respective enzymes (Figure 4A,B). […] To optimize substrate concentrations, both assays were run for 90 min at three different substrate concentrations (10, 5, and 2.5 µM) which included the concentration at which the assays were recapitulated in 1536 wpf (10 µM for both meprin α and meprin β) and the concentration approximating [S]/KM = 1 condition (2.5 µM). Enzyme concentrations were fixed at 1.3 nM for meprin α and 0.0125 nM for meprin β. […]
Substrate stock solutions were prepared at various concentrations in HTS assay buffer (50 mM Hepes, 0.01% Brij-35, pH 7.5). […] Fluorescence was measured on a multimode microplate reader Synergy H1 (Biotek Instruments, Winooski, VT, USA) using λexcitation = 324 nm and λemission = 393 nm. Rates of hydrolysis were obtained from plots of fluorescence versus time, using data points from only the linear portion of the hydrolysis curve. The slope from these plots was divided by the fluorescence change corresponding to complete hydrolysis and then multiplied by the substrate concentration to obtain rates of hydrolysis in units of μM/s. […]

## CCCCC[C@H](CC(=O)NO)C(=O)N[C@H](C(=O)N1CCC[C@H]1CO)C(C)C [Actinonin, actinonin]
Meprin β [1]; Meprin β 384 wpf
  IC50: 22000 nM
Meprin β [1]; Meprin β 1536 wpf
  IC50: 9750 nM
Meprin α [2]; 2.5 µM substrate condition
  increased apparent potency: 2 fold
Meprin α [2]; 1536 wpf, 1.3 nM enzyme, substrate 2.5uM, time 30 min, read-out: Actinonin IC50
  IC50: 3 nM
Meprin α [2]; 1536 wpf, 1.3 nM enzyme, substrate 2.5uM, time 60 min, read-out: Actinonin IC50
  IC50: 3.4 nM
Meprin α [2]; 1536 wpf, 1.3 nM enzyme, substrate 5uM, time 30 min, read-out: Actinonin IC50
  IC50: 3.2 nM
Meprin α [2]; 1536 wpf, 1.3 nM enzyme, substrate 10uM, time 30 min, read-out: Actinonin IC50
  IC50: 5.4 nM
Meprin α [2]; 1536 wpf, 1.3 nM enzyme, substrate 10uM, time 60 min, read-out: Actinonin IC50
  IC50: 6.4 nM
Meprin α [2]; 1536 wpf, 1.3 nM enzyme, substrate 10uM, time 90 min, read-out: Actinonin IC50
  IC50: 6.9 nM
Meprin α [2]; 1536 wpf, enzyme 0.32nM, time 30 min, read-out: Actinonin IC50
  IC50: 5.18 nM
Meprin α [2]; 1536 wpf, enzyme 0.32nM, time 60 min, read-out: Actinonin IC50
  IC50: 5.54 nM
Meprin α [2]; 1536 wpf, enzyme 0.32nM, time 90 min, read-out: Actinonin IC50
  IC50: 5.83 nM
Meprin α [2]; 1536 wpf, enzyme 0.65nM, time 30 min, read-out: Actinonin IC50
  IC50: 4.11 nM
Meprin α [2]; 1536 wpf, enzyme 0.65nM, time 60 min, read-out: Actinonin IC50
  IC50: 4.99 nM
Meprin α [2]; 1536 wpf, enzyme 0.65nM, time 90 min, read-out: Actinonin IC50
  IC50: 5.2 nM
Meprin α [2]; 1536 wpf, enzyme 1.3nM, time 30 min, read-out: Actinonin IC50
  IC50: 4.84 nM
Meprin α [2]; 1536 wpf, enzyme 1.3nM, time 60 min, read-out: Actinonin IC50
  IC50: 5.94 nM
Meprin α [2]; 1536 wpf, enzyme 1.3nM, time 90 min, read-out: Actinonin IC50
  IC50: 6.33 nM
Meprin α [2]; Meprin α 384 wpf, read-out: IC50
  IC50: 11 nM
Meprin α [2]; Meprin α 1536 wpf, read-out: IC50
  IC50: 5.7 nM
Meprin α [2]; control compound in primary HTS campaign, n = 11 plates, read-out: IC50
  IC50: 2.9 ± 0.12 nM

## O=C(CN(Cc1ccc(F)c(O)c1F)Cc1ccc(F)c(O)c1F)NO [Compound 8h]
Meprin β [3]
  selective against meprin α: 27 fold
Meprin β [3]; read-out: IC50 meprin β
  IC50: 23 nM
Meprin α [4]; read-out: IC50 meprin α
  IC50: 626 nM
MMP and ADAM
  effect on MMP and ADAM activity: only limited effect

## O=C(CN(Cc1ccc(Cl)c(O)c1F)Cc1ccc(Cl)c(O)c1F)NO [Compound 8i]
Meprin β [3]
  selective against meprin α: 15 fold
Meprin β [3]; read-out: IC50 meprin β
  IC50: 24 nM
Meprin α [4]; read-out: IC50 meprin α
  IC50: 368 nM
MMP and ADAM
  effect on MMP and ADAM activity: only limited effect

## O=C(CCN(CCc1ccc2c(c1)OCCO2)CCc1ccc2c(c1)OCCO2)NO [Compound 10d]
Meprin β [3]; read-out: Meprin β IC50
  IC50: 2950 nM
Meprin α [4]
  selectivity against meprin β (Selectivity Fold): 18 fold
Meprin α [4]; read-out: Meprin α IC50
  IC50: 160 nM

## O=C(CCN(CCc1ccc2c(c1)OCO2)CCc1ccc2c(c1)OCO2)NO [Compound 10e]
Meprin β [3]; read-out: Meprin β IC50
  IC50: 7590 nM
Meprin α [4]
  selectivity against meprin β (Selectivity Fold): 19 fold
Meprin α [4]; read-out: Meprin α IC50
  IC50: 400 nM

## O=C(CN(Cc1cccc(C(=O)O)c1)S(=O)(=O)c1cccc(C(=O)O)c1)NO [Compound 11g]
Meprin β [3]
  selectivity against meprin α: 46 fold
Meprin β [3]; read-out: IC50 meprin β
  IC50: 60 nM
Meprin α [4]; read-out: IC50 meprin α
  IC50: 2740 nM
MMP and ADAM
  selectivity against adamalysins and matrixins: good selectivity

## Cc1nc(/N=N/c2cc(S(=O)(=O)O)c3cc([N+](=O)[O-])cc(S(=O)(=O)O)c3c2)c(COP(=O)(O)O)c(C=O)c1O [PPNDS]
Meprin β [3]
  Ki: 8 nM

## COc1ccc2c(CC(=O)N[C@@H](Cc3ccc(O)cc3)C(=O)N[C@H](C(=O)N[C@@H](C)C(=O)N[C@@H](CC(=O)O)C(=O)N[C@@H](C)C(=O)N3CCC[C@H]3C(=O)N[C@@H](CCCCN)C(=O)N[C@@H](CCCCNc3ccc([N+](=O)[O-])cc3[N+](=O)[O-])C(N)=O)C(C)C)cc(=O)oc2c1 [meprin α substrate, (Mca)-YVADAPK-(K-ε-Dnp)] (Mca-YVADAPKK(Dnp)-NH2)
Meprin α [5]
  Km: 2.4 ± 0.3 µM
